Test results published in patent US20260193246A1, “METHOD OF MAKING LANIFIBRANOR” (INVENTIVA, priority 2023, published 2026).

Tests used:
Format in all cases: physicochemical
[1] = Compressibility index and Hausner ratio from bulk and tapped density (Electrolab ETD-1020)
Procedure: The compressibility index and Hausner ratio were determined using an Electrolab ETD-1020 apparatus using measured values of bulk density (ρbulk) and tapped density (ρtapped) as follows: [formula] [formula]

Thermogravimetry (TGA) = conditions: temperature range 25-200° C.
Procedure: Crystalline form beta of lanifibranor is also characterized by its thermogravimetry (TGA) curve. […] Above 250° C., the weight loss observed likely corresponds to degradation. In some embodiments, said TGA curve is substantially in accordance with FIG. 3.

[2] = Angle of repose (powder flow, Electrolab EFT-01); conditions: 50 g of powder through an orifice of 25 mm; rounded average of three experiments
Procedure: Powder flow and the angle of repose were determined using an Electrolab EFT-01 apparatus. In a first step, powder flow is measured through various orifices (10, 15 and 25 mm). In a second step, the angle of repose is measured by the height of the cone formed by a sample of 50 g of powder passing through an orifice of 25 mm. The result obtained in the rounded average of three experiments.

[3] = Dynamic vapor sorption (DVS); conditions: range 0% RH-95% RH
Description: Crystalline form beta of lanifibranor is also characterized by its dynamic vapor sorption (DVS). […] In some embodiments, the DVS isotherm plot of crystalline form beta of lanifibranor is substantially in accordance with FIG. 4.

Hausner ratio [1]: 1.26
compressibility index [1]: 20.64
angle of repose [2]: 35 °
maximum uptake (weight variation, DVS) [3]: +0.1%
Structure (SMILES): O=C(O)CCCc1cc2cc(Cl)ccc2n1S(=O)(=O)c1ccc2ncsc2c1 [crystalline form beta of lanifibranor, 1-(6-benzothiazolylsulfonyl)-5-chloro-1H-indole-2-butanoic acid]
weight loss (TGA) (Thermogravimetry (TGA)): does not highlight any significant weight loss
